Results published in patent publication US20140271456A1, “RADIOTRACER IMAGING USING SODIUM IODIDE SYMPORTER POLYPEPTIDES” (Mayo Foundation for Medical Education and Research, priority 2013, published 2014).

Tests used:
[1] = target: T1, NIS (Homo sapiens, UniProt Q92911); test: iodide mediated quenching of YFP-H148Q/I152L fluorescence; type: cell-based; conditions: 5 mM KClO4; quenching mediated by 200 mM NaI; FIG. 3
T1 construct: expressed in transfected cells; host or cells: cells transduced with the lentiviral vector
T1 sequence (Q92911 1-643): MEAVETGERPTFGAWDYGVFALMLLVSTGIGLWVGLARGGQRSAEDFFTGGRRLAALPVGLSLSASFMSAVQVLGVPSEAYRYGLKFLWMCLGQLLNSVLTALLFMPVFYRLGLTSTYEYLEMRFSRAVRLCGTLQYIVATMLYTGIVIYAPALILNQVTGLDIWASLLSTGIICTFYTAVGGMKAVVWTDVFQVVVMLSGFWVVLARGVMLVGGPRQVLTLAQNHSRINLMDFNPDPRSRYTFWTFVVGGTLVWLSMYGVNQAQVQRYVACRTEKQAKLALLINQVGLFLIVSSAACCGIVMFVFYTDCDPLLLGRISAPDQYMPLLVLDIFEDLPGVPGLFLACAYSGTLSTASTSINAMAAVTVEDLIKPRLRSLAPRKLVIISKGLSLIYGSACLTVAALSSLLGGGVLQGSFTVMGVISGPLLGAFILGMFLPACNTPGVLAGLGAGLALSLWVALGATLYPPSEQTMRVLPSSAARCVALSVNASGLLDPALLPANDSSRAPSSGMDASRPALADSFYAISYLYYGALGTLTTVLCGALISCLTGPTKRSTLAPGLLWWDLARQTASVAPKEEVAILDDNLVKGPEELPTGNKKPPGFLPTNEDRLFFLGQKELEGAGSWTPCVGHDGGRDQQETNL
Experimental: 72 hours post infection, the cells are subjected to two color flow cytometry to determine the percentage of cells that express YFP-H148Q/I152L and are tagged with anti-HA antibody conjugated to Alexa Fluor 647. To determine the percentage hNIS variants that can transport iodide into the cell, infected cells are treated with 200 μM NaI. The quenching of YFP-H148Q/I152L fluorescence (output for intracellular iodide uptake) is analyzed by flow cytometry.
Five million cells are infected at a moi of 1 with the lentiviral library transducing HA-hNIS variants. On the third day post infection, the cells are expanded to increase the number of cells expressing each unique NIS variant to limit the potential of it being lost during the selection procedure. On day 5, infected cells that fluoresce brightly are selected for by fluorescence-activated cell sorting (FACS) and collected in HBSS/HEPES buffer Immediately thereafter, these cells are incubated for 5 minutes with KClO4 at a concentration that inhibits iodide transport by non-mutated NIS. Then, NaI is added to the cells to a finale concentration of […], and the cells are incubated for 10 minutes at 37° C. Cells whose fluorescence is quenched in the presence of KClO4 are selected for by flow sorting. […]

[2] = test system: NIS expressing cells; conditions: less efficiently than iodide; cited from earlier work

Q: For `[K+].[O-][Cl+3]([O-])([O-])[O-]` [perchlorate, KClO4], which “effect on iodide mediated quenching of YFP-H148Q/I152L” value [1] is on record?
A: Its value is “inhibition”.

Q: And the “efficiency of concentration in NIS expressing cells compared to iodide anions” value [2]?
A: Its value is 10 fold.
